Measurements: patent US20190167629A1, “COMBINATION THERAPY METHODS FOR TREATING PROLIFERATIVE DISEASES” (Abraxis BioScience, LLC, priority 2010, published 2019)
Like-named read-outs stand apart in the source and are kept apart here.

How the values were obtained:
SPARC [1] = experiment: SPARC promoter methylation (MSP) and SPARC expression (RT-PCR, Western blot) in NSCLC cell lines in vitro; format: cell-based, human; conditions: 3 days in vitro
Description: Total RNA was extracted from the samples with Trizol reagent (Invitrogen; Carlsbad, Calif.), and first-strand complementary DNA was generated using SuperScript III First-Strand Synthesis System (Invitrogen). The forward polymerase chain reaction (PCR) amplification primer of SPARC was 5′-[…]-3′ (Ex8-S, SEQ ID NO:1), and the reverse primer was 5-[…]-3′ (Ex9-AS, SEQ ID NO:2). Semiquantitative PCR was carried out for 4 minutes at 95° C. for initial denaturation, followed by 33 cycles of 94° C. for 25 seconds, 56° C. for 25 seconds, and 68° C. for 40 seconds. Glyceraldehyde-3-phosphate dehydrogenase (GAPDH) was used as endogenous control. Quantitative real-time (RT) PCR was done with SYBR GreenER qPCR superMix for ABI PRISM (Invitrogen) using ABI 7300 RT PCR system (Invitrogen), and GAPDH was used as a housekeeping gene for purpose of normalization.
The objective of this study was to determine if demethylation of the promoter region of the SPARC gene results in reexpression of the SPARC gene in cancer cells. DNA methylation in gene promoter regions is a mechanism to silence gene expression. The loss of SPARC expression in a large proportion of NSCLC specimens may be due to the methylation in the promoter region of SPARC gene was investigated. Representative samples of NSCLC cell lines or PD xenografts were treated with decitabine (5 μM) in vitro for three days and promoter methylation was analyzed.
Genomic DNA was obtained from cell lines and primary tumors by using DNeasy Blood and Tissue Kit (Qiagen; Valencia, Calif.) according to the manufacturer's handbook. The DNA methylation pattern in the CpG island of SPARC was determined using the method of methylation-specific PCR (MSP) and with the EZ DNA Methylation Kit (Zymo research, Irvine, Calif.). Primers for the methylated reaction were Sparc-unmsp-F: 5′-[…]-3′ (sense, SEQ ID NO:3), Sparcunmsp-R: 5′-[…]-3′ (antisense, SEQ ID NO:4), sparc-msp-F: 5′-[…]-3′ (sense, SEQ ID NO:5), and sparc-msp-R: 5′-[…]-3′ (antisense, SEQ ID NO:6). PCR amplification was carried out with bisulfite-treated DNA as a template using specific primer sequences for the methylated and unmethylated status of the gene. Water blanks were included with each assay. PCR amplification was carried out for 12 minutes at 94° C. for initial denaturation, followed by 40 cycles of 94° C. for 30 seconds, 58° C. for 25 seconds, and 68° C. for 45 seconds. Results were confirmed by repeating the bisulfate treatment and MSP for all samples. PCR products were visualized on 1.5% agarose gels.
Western blot analysis was carried out using standard methods. Polyclonal antihuman SPARC antibody was purchased from R&D System (Minneapolis, Minn.). […] The levels of β-actin (Sigma) were measured as control for equal loading. […]

SPARC [2] = experiment: SPARC expression in NSCLC xenografts in vivo; parameters: species or system SCID mice
Description: Western blot analysis was carried out using standard methods. Polyclonal antihuman SPARC antibody was purchased from R&D System (Minneapolis, Minn.). NSCLC cell lines A549, H460, and H157 were treated with 5 μM decitabine for 3 days in vitro and then harvested for RT-PCR and Western blot analysis. PD NSCLC xenografts and H460 xenografts treated with or without decitabine at 1.5 mg/kg/d. Xenografts were harvested for SPARC expression analysis. GAPDH were used as the endogenous control. Xenograft lysates were prepared and subjected to immunoblot analysis using 50 μg of cellular protein as described previously (Yu, C. et al. Blood 2003 102:3765-3774). The levels of β-actin (Sigma) were measured as control for equal loading. Immunoblots were developed with enhanced chemiluminescence (Amersham Bioscience, Golden Valley, Minn.).
(§1) To establish a maximally tolerated dose to be used in experiments involving pretreatment with decitabine, groups of mice implanted with H460 cell lines were tested at four dose levels of decitabine, i.e., 0.75, 1.5, 2, and 4 mg/kg, administered intraperitoneally as a single dose and monitored for viability (weight loss and death). Two mice from each group were killed 48 hours after completing decitabine treatment alone and tumor xenografts harvested to affirm SPARC-expression status. […]

[3] = system: mice implanted with H460 cell lines; experiment: Tolerable dose of decitabine, viability (weight loss and death); format: in vivo, SCID mice
Description: To establish a maximally tolerated dose to be used in experiments involving pretreatment with decitabine, groups of mice implanted with H460 cell lines were tested at four dose levels of decitabine, i.e., 0.75, 1.5, 2, and 4 mg/kg, administered intraperitoneally as a single dose and monitored for viability (weight loss and death). Two mice from each group were killed 48 hours after completing decitabine treatment alone and tumor xenografts harvested to affirm SPARC-expression status. For combination drug treatment, Abraxane® was administered by tail vein injection at 30 mg/kg/d for 5 consecutive days. Taxol and decitabine were used at 13.4 mg/kg/d and 1.5 mg/kg/d, respectively. […] At the end of drug treatment, the mice were killed. Xenografts were harvested and assayed to determine SPARC status.
The study evaluates tumor SPARC expression upregulation on treatment with decitabine in vitro and in vivo. To establish a tolerable dose to be used in experiments in vivo, groups of mice implanted with H460 cell lines were tested at four dose levels of decitabine, i.e., 0.75, 1.5, 2, and 4 mg/kg, respectively. This is based on prior publication showing that decitabine administered twice daily intraperitoneally for 5 days was toxic at 10 mg/kg/dose, and 2 mg/kg dose was associated with mild toxicity (Guo, Z S et al Cancer Res 2006 22:1105-1113). […] Nevertheless, decitabine at 2 and 4 mg/kg was toxic with 6/8 (75%) mice dead between 8 and 12 days after only one decitabine dose (without Abraxane® treatment). Decitabine dose at 1.5 mg/kg was subsequently used in the combination experiments.

[4] = cited from earlier work
NSCLC_16372 xenograft = experiment: Tumor xenograft growth in vivo, SPARC-positive PD NSCLC xenograft; parameters: species or system SCID mice; conditions: Abraxane 30 mg/kg, taxol 13.4 mg/kg (equitoxic)
Description: (§2) Experimental studies were carried out using 6- to 8-week-old CB.17 severe combined immunodeficiency (SCID)/SCID with an average body weight ˜25 g. H460 (5×10^6 cells) or PD NSCLC xenografts (mouse-to-mouse passage), which were cut into small fragments (2-3 mm in size), were implanted subcutaneously at the flank region. Tumor growth was monitored by periodic visual inspection at the site of implantation, and the dimensions of the xenografts were measured every 2 to 3 days. Tumor volume was calculated using the following formula: V=LD×(SD)^2/2, where V is the tumor volume, LD is the longest tumor diameter, and SD is the shortest tumor diameter.
as §1, with “death).” for “death). Two mice from each group were killed 48 hours after completing decitabine treatment alone and tumor xenografts harvested to affirm SPARC-expression status.”
(§3) To describe the observed variability in the in vivo data and test for differences between groups, a multivariate linear model was fit to each dependent variable (tumor volume). […] Difference was considered statistically significant when the calculated p value was less than 0.05.

NSCLC_15946 xenograft = experiment: Tumor xenograft growth in vivo, SPARC-intermediate PD NSCLC xenograft; parameters: species or system SCID mice; conditions: Abraxane 30 mg/kg, taxol 13.4 mg/kg (equitoxic)
Description: as §2
as §1, with “death).” for “death). Two mice from each group were killed 48 hours after completing decitabine treatment alone and tumor xenografts harvested to affirm SPARC-expression status.”
as §3

NSCLC_16465 xenograft = experiment: Tumor xenograft growth in vivo, SPARC-negative PD NSCLC xenograft; parameters: species or system SCID mice; conditions: taxol 13.4 mg/kg
Description: as §2
as §1, with “death).” for “death). Two mice from each group were killed 48 hours after completing decitabine treatment alone and tumor xenografts harvested to affirm SPARC-expression status.”
as §3

NSCLC_16591 xenograft = experiment: as above; parameters: species or system SCID mice; conditions: Abraxane 30 mg/kg, taxol 13.4 mg/kg (equitoxic)
Description: as §2
as §1, with “death).” for “death). Two mice from each group were killed 48 hours after completing decitabine treatment alone and tumor xenografts harvested to affirm SPARC-expression status.”
as §3

[5] = system: advanced or metastatic solid tumors, including lymphoma; experiment: Phase I/II study of azacitidine with nanoparticle albumin bound paclitaxel; format: in vivo, human; conditions: azacitidine sc days 1-5, then paclitaxel 100 mg/m^2 days 8, 15, 22 of 28-day cycle
Description: Patients with evaluable advanced or metastatic solid tumors, including lymphoma, adequate organ function, PS 0-2, and unlimited prior cytotoxic chemotherapies, including taxanes, were eligible. Cohorts of 3-6 patients were enrolled and treated.
Escalating doses of azacitidine (75-100 mg/m^2) were administered to patients subcutaneously on days 1-5, followed by a fixed dose of paclitaxel ([…]) on days 8, 15, and 22 of a 28-day cycle, for a total of 6 cycles. Serum and/or tissue samples, where appropriate, were collected for correlative studies.
Patients were initially permitted to have an unlimited number of prior chemotherapies. […] All affected patients had 4 or more prior cytotoxic regimens. […] Cohort 3 was treated at the next dose level (azacitidine 100 mg/m^2). […] Therefore, the maximum tolerated dose (MTD) of azacitidine in this regimen is 75 mg/m^2. […] To date, 16 patients have enrolled in the phase I part. Two patients were removed before completing cycle 1 because of disease progression. One patient was removed after cycle 4 for noncompliance.

[6] = decitabine at 2 and 4 mg/kg ip, without Abraxane treatment

Nc1ncn([C@H]2C[C@H](O)[C@@H](CO)O2)c(=O)n1 [decitabine, 5-aza-2′-deoxycytidine]
SPARC expression in NSCLC cell lines (SPARC [1]; A549, H460 and H157, decitabine 5 μM): up-regulated | SPARC expression (SPARC [1]; H460 cells, decitabine 5 μM): up-regulated | SPARC protein (Western blot) (SPARC [1]; H460 cells, decitabine 5 μM): upregulation | unmethylated promoter of SPARC (methylation-specific PCR) (SPARC [1]; H460 cells, decitabine 5 μM): increase | SPARC expression in xenografts (SPARC [2]; NSCLC_16325, NSCLC_16384 and H460 xenografts, decitabine 1.5 mg/kg): up-regulated | reexpression of SPARC in H460 xenografts (SPARC [2]; decitabine 0.75, 1.5, 2 and 4 mg/kg ip): dose-dependent reexpression | toxicity ([3]; decitabine at 2 and 4 mg/kg ip single dose): toxic | mice dead between 8 and 12 days after only one decitabine dose [3, 6]: 75% | mice dead between 8 and 12 days after only one decitabine dose (number/total) [3, 6]: 6/8 | toxicity ([4]; 2 mg/kg dose twice daily intraperitoneally for 5 days): mild toxicity | toxicity ([4]; 10 mg/kg/dose twice daily intraperitoneally for 5 days): toxic

CC(=O)O[C@H]1C(=O)[C@@]2(C)[C@H]([C@H](OC(=O)c3ccccc3)[C@]3(O)C[C@H](OC(=O)[C@H](O)[C@@H](NC(=O)c4ccccc4)c4ccccc4)C(C)=C1C3(C)C)[C@]1(OC(C)=O)CO[C@@H]1C[C@@H]2O [taxol]
xenograft growth compared with vehicle control (NSCLC_16372 xenograft): suppressed | tumor growth compared with vehicle control (NSCLC_15946 xenograft): significantly inhibited | tumor growth compared with vehicle control (NSCLC_16465 xenograft): no difference compared with vehicle control | effect on tumor growth compared with vehicle control (NSCLC_16591 xenograft): Neither administration of taxol nor administration of Abraxane® showed any effect on tumor growth

Nc1ncn([C@@H]2O[C@H](CO)[C@@H](O)[C@H]2O)c(=O)n1 [azacitidine, 5-azacytidine]
maximum tolerated dose (MTD) of azacitidine in this regimen [5]: 75 mg/m^2
